Experimental data from patent US9676870B2, “Methods of treating atherosclerosis and aneurysm” (The Brigham and Women's Hospital, Inc., priority 2011, dated 2017).
Entries after “also recorded” stand apart in the source; their conditions may differ. Residues, ends and D or L forms follow the SMILES beside them. *: point of attachment. Cbz = O=C(OCc1ccccc1)*; CH2F = FC*

Columns and labels:
Assay type in all cases: cell-based
[1] = system: human monocyte-derived macrophages; assay: Human monocyte-derived macrophage apoptosis (TUNEL staining)
Protocol: (§1) Human macrophages were prepared by differentiating Ficoll gradient-separated monocytes from human blood in RPMI with 10% human serum (Gemini Bio-Products, West Sacramento, Calif.) for 10 days on Falcon PRIMARIA™ tissue culture dishes (Becton Dickinson Labware, Franklin Lakes, N.J.) without coating. Mouse thioglycolate (3%, Sigma, St. Louis, Mo.)-stimulated peritoneal macrophages were prepared from WT C57BL/6 mice (Jackson Laboratory), Fcer1a^−/− mice (congenic C57BL/6, N>8) (21), Tlr2^−/− mice (Jackson Laboratory, N16), and […] (Jackson Laboratory, C57BL/6, N8). Cells were cultured in RPMI-1640 with 10% fetal bovine serum (FBS). Human aortic SMCs and ECs were obtained from human donor aortas and subcultured at passages 2-5 in DMEM containing 10% FBS (for SMCs), or in medium 199 containing 20% FBS (for ECs).
(§2) To detect IgE-induced apoptosis, human and mouse macrophages and HuSMC were cultured on 8-well chamber slides, 96-well plates, or 6-well plate pre-coated with 1% gelatin. […]

[2] = system: human macrophages; assay: IgE-induced human macrophage cell death (MTT assay); details: human macrophages from most donors, IgE 50 μg/mL
Protocol: as §1, §2

[3] = system: human macrophages; assay: IgE-induced human macrophage IL6 secretion; details: human macrophages from most donors; IgE 50 μg/mL
Protocol: as §1
(§3) To detect cytokine production, cells were starved in corresponding media containing 0.5% FBS overnight, then incubated for 2 days in starvation media containing IgE (50 μg/mL for macrophages; 100 μg/mL for SMCs and ECs). Mouse poorly cytokinergic monomeric IgE H1 DNP-ε-206 (50 μg/mL) (34) and highly cytokinergic aggregated IgE SPE-7 (50 μg/mL) (Sigma) with or without LPS (100 ng/mL), ox-LDL (50 μg/mL), or DNP-HSA (10 ng/mL) were used to stimulate mouse macrophages. Human IgE was obtained from Immunology Consultants Laboratory, Inc. (Newberg, Oreg., RA-80E). […]

[4] = system: mouse peritoneal macrophages; assay: Mouse peritoneal macrophage IL6 / MCP-1 production (ELISA, real-time PCR)
Protocol: as §1, §3

[5] = system: mouse peritoneal macrophages; assay: Mouse peritoneal macrophage apoptosis / cell death (TUNEL, MTT); details: 50-100 μM EIPA, 50 μg/mL mouse IgE (SPE-7)
Protocol: as §1, §2

[6] = system: human macrophages; assay: IgE-induced human macrophage medium pH reduction
Protocol: as §1, §2

[7] = system: HuSMCs; assay: Cultured human aortic SMC (HuSMC) stimulation: immunoblot, cytokines, cell death; details: IFN-γ 20 ng/mL, 50 μg lysate
Protocol: as §1, §3

[8] = system: HuECs; assay: Cultured human EC (HuEC) stimulation: immunoblot, cell death; details: IFN-γ 20 ng/mL, 50 μg lysate
Protocol: as §1, §3

`CCN(c1nc(N)c(C(=O)NC(=N)N)nc1Cl)C(C)C` [EIPA, ethylisopropylamiloride] was tested, and the “cell death caused by EIPA alone” value ([1]; 10 μM EIPA, same condition as LPS, 2-3 days, data not shown) was “did not cause any cell death”, the “blocking of IgE-induced cell death” value [2] was “significantly blocked” and the “blocking of IgE-induced IL6 secretion” value [3] was “significantly blocked”. For the same molecule, the “blocking of IgE-induced macrophage secretion of IL6” value ([4]; 50-100 μM EIPA, 50 μg/mL mouse IgE (SPE-7)) was “blocked significantly”, the “blocking of IgE-induced macrophage apoptosis” value [5] was “blocked significantly” and the “blocking of IgE-induced medium color change and pH reduction” value ([6]; 10 μM EIPA, IgE 50 μg/mL) was “completely blocked”. The “pH change by EIPA treatment alone” value ([6]; EIPA alone, no IgE) was “did not change pH”.

In the case of `COC(=O)C[C@H](NC(=O)[C@H](C)NC(=O)[C@@H](NC(=O)OCc1ccccc1)C(C)C)C(=O)CF` [ZVAD-FMK] (Cbz-Val-Ala-Asp(OMe)-CH2F), the “blocking of IgE-induced human macrophage apoptosis” value ([1]; ZVAD-FMK 20 μM, IgE 50 μg/mL) is reported as “blocked; also recorded: efficiently blocks”.

“dinitrophenyl-human serum albumin [DNP-HSA]” was tested, and the “impact of antigen on SPE-7 or H1 DNP-ε-206 in macrophage activity assays” value ([4]; 10 ng/mL DNP-HSA, pH, cell death and IL6 assays) was “no significant impact”.

B1: IFN-γ: inflammatory cytokine (protein, UniProt P01579 24-161, looked up)
Interferon gamma: QDPYVKEAENLKKYFNAGHSDVADNGTLFLGILKNWKEESDRKIMQSQIVSFYFKLFKNFKDDQSIQKSVETIKEDMNVKFFNSNKKKRDDFEKLTNYSVTDLNVQRKAIHELIQVMAELSPAAKTGKRKRSQMLFRG
With B1 the “FcεR1α expression in SMCs” value [7] was “induced FcεR1α expression” and the “FcεR1α expression in ECs” value [8] was “induced FcεR1α expression”.
